Assay results as given in the supplement of paper PMC10883282.
± gives the standard deviation of the averaged measurements.

Experiments:
Test in all cases: relative viability vs DMSO control (72 h) (fraction); higher = more viable cells
A204 = system: A204
Procedure, shortened: (§1)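 Percent growth from ATPLite readings, averaged over up to triplicate wells, was used as relative viability. Sarcoma cell lines were seeded into 384-well plates for 80–90% confluence, dosed after 24 h, and kept 72 h at 37 °C, 5% CO2. Data were rescaled to a range where 1 is full and 0 is none.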

G401 = system: G401
Procedure, shortened: as §1

HS729 = system: HS729
Procedure, shortened: as §1

HT1080 = system: HT1080
Procedure, shortened: as §1

KHOS-NP = system: KHOS-NP
Procedure, shortened: as §1

MES-SA = system: MES-SA
Procedure, shortened: as §1

SK-LMS-1 = system: SK-LMS-1
Procedure, shortened: as §1

SW1353 = system: SW1353
Procedure, shortened: as §1

SW684 = system: SW684
Procedure, shortened: as §1

SW872 = system: SW872
Procedure, shortened: as §1

SYO-1 = system: SYO-1
Procedure, shortened: as §1

VA-ES-BJ = system: VA-ES-BJ
Procedure, shortened: as §1

CCc1cnn2c(NCc3ccc[n+]([O-])c3)cc(N3CCCC[C@H]3CCO)nc12 [Dinaciclib]
Conditions	relative viability
A204, 0.00017 µM	0.998 ± 0.031
A204, 0.00051 µM	1.02 ± 0.051
A204, 0.00152 µM	0.9831 ± 0.0034
A204, 0.00457 µM	0.913 ± 0.063
A204, 0.01372 µM	0.482 ± 0.0053
A204, 0.04115 µM	0.247 ± 0.09
A204, 0.1235 µM	0.235 ± 0.065
A204, 0.3704 µM	0.199 ± 0.013
A204, 1.111 µM	0.187 ± 0.0096
A204, 3.333 µM	0.179 ± 0.0083
A204, 10 µM	0.18 ± 0.021
G401, 0.00017 µM	0.997 ± 0.03
G401, 0.00051 µM	0.974 ± 0.067
G401, 0.00152 µM	0.989 ± 0.071
G401, 0.00457 µM	0.915 ± 0.034
G401, 0.01372 µM	0.46 ± 0.056
G401, 0.04115 µM	0.089 ± 0.0047
G401, 0.1235 µM	0.0853 ± 0.0024
G401, 0.3704 µM	0.0974 ± 0.0011
G401, 1.111 µM	0.0916 ± 0.0065
G401, 3.333 µM	0.0843 ± 0.0081
G401, 10 µM	0.072 ± 0.0028
HS729, 0.00017 µM	1.05 ± 0.042
HS729, 0.00051 µM	1.08 ± 0.052
HS729, 0.00152 µM	1.09 ± 0.07
HS729, 0.00457 µM	1.06 ± 0.033
HS729, 0.01372 µM	1.03 ± 0.039
HS729, 0.04115 µM	0.396 ± 0.033
HS729, 0.1235 µM	0.378 ± 0.01
HS729, 0.3704 µM	0.397 ± 0.026
HS729, 1.111 µM	0.386 ± 0.015
HS729, 3.333 µM	0.371 ± 0.024
HS729, 10 µM	0.332 ± 0.018
HT1080, 0.00017 µM	1.04 ± 0.06
HT1080, 0.00051 µM	1.04 ± 0.011
HT1080, 0.00152 µM	1.04 ± 0.013
HT1080, 0.00457 µM	1.09 ± 0.026
HT1080, 0.01372 µM	0.792 ± 0.017
HT1080, 0.04115 µM	0.193 ± 0.0056
HT1080, 0.1235 µM	0.208 ± 0.0097
HT1080, 0.3704 µM	0.209 ± 0.016
HT1080, 1.111 µM	0.202 ± 0.0062
HT1080, 3.333 µM	0.216 ± 0.0038
HT1080, 10 µM	0.219 ± 0.018
KHOS-NP, 0.00017 µM	1.03 ± 0.049
KHOS-NP, 0.00051 µM	1.05 ± 0.024
KHOS-NP, 0.00152 µM	1.06 ± 0.034
KHOS-NP, 0.00457 µM	1.07 ± 0.028
KHOS-NP, 0.01372 µM	0.836 ± 0.079
KHOS-NP, 0.04115 µM	0.183 ± 0.0019
KHOS-NP, 0.1235 µM	0.153 ± 0.0028
KHOS-NP, 0.3704 µM	0.163 ± 0.01
KHOS-NP, 1.111 µM	0.164 ± 0.012
KHOS-NP, 3.333 µM	0.162 ± 0.0072
KHOS-NP, 10 µM	0.137 ± 0.011
MES-SA, 0.00017 µM	0.994 ± 0.056
MES-SA, 0.00051 µM	1.04 ± 0.032
MES-SA, 0.00152 µM	0.957 ± 0.024
MES-SA, 0.00457 µM	0.912 ± 0.015
MES-SA, 0.01372 µM	0.383 ± 0.044
MES-SA, 0.04115 µM	0.0374 ± 0.0044
MES-SA, 0.1235 µM	0.0354 ± 0.0037
MES-SA, 0.3704 µM	0.0357 ± 0.0044
MES-SA, 1.111 µM	0.0288 ± 0.0057
MES-SA, 3.333 µM	0.0272 ± 0.0025
MES-SA, 10 µM	0.0262 ± 0.0046
SK-LMS-1, 0.00017 µM	1.06 ± 0.042
SK-LMS-1, 0.00051 µM	1.05 ± 0.047
SK-LMS-1, 0.00152 µM	1.07 ± 0.052
SK-LMS-1, 0.00457 µM	1.03 ± 0.038
SK-LMS-1, 0.01372 µM	0.817 ± 0.041
SK-LMS-1, 0.04115 µM	0.325 ± 0.03
SK-LMS-1, 0.1235 µM	0.309 ± 0.022
SK-LMS-1, 0.3704 µM	0.333 ± 0.014
SK-LMS-1, 1.111 µM	0.341 ± 0.023
SK-LMS-1, 3.333 µM	0.34 ± 0.017
SK-LMS-1, 10 µM	0.353 ± 0.013
SW684, 0.00017 µM	0.96 ± 0.011
SW684, 0.00051 µM	1.01 ± 0.021
SW684, 0.00152 µM	1.02 ± 0.04
SW684, 0.00457 µM	0.964 ± 0.028
SW684, 0.01372 µM	0.669 ± 0.14
SW684, 0.04115 µM	0.713 ± 0.092
SW684, 0.1235 µM	0.71 ± 0.041
SW684, 0.3704 µM	0.713 ± 0.017
SW684, 1.111 µM	0.689 ± 0.015
SW684, 3.333 µM	0.7 ± 0.021
SW684, 10 µM	0.71 ± 0.03
SW872, 0.00017 µM	1.01 ± 0.036
SW872, 0.00051 µM	1.01 ± 0.043
SW872, 0.00152 µM	1.01 ± 0.047
SW872, 0.00457 µM	1.03 ± 0.025
SW872, 0.01372 µM	0.947 ± 0.062
SW872, 0.04115 µM	0.412 ± 0.03
SW872, 0.1235 µM	0.279 ± 0.01
SW872, 0.3704 µM	0.268 ± 0.017
SW872, 1.111 µM	0.259 ± 0.011
SW872, 3.333 µM	0.256 ± 0.0063
SW872, 10 µM	0.245 ± 0.0094
SW1353, 0.00017 µM	1.05 ± 0.028
SW1353, 0.00051 µM	1.08 ± 0.061
SW1353, 0.00152 µM	1.07 ± 0.04
SW1353, 0.00457 µM	1.07 ± 0.054
SW1353, 0.01372 µM	0.944 ± 0.029
SW1353, 0.04115 µM	0.238 ± 0.006
SW1353, 0.1235 µM	0.238 ± 0.0093
SW1353, 0.3704 µM	0.242 ± 0.016
SW1353, 1.111 µM	0.235 ± 0.0046
SW1353, 3.333 µM	0.234 ± 0.0038
SW1353, 10 µM	0.219 ± 0.0075
SYO-1, 0.00017 µM	0.982 ± 0.013
SYO-1, 0.00051 µM	0.998 ± 0.029
SYO-1, 0.00152 µM	0.982 ± 0.011
SYO-1, 0.00457 µM	0.908 ± 0.069
SYO-1, 0.01372 µM	0.28 ± 0.03
SYO-1, 0.04115 µM	0.248 ± 0.031
SYO-1, 0.1235 µM	0.256 ± 0.011
SYO-1, 0.3704 µM	0.294 ± 0.049
SYO-1, 1.111 µM	0.288 ± 0.057
SYO-1, 3.333 µM	0.295 ± 0.04
SYO-1, 10 µM	0.305 ± 0.047
VA-ES-BJ, 0.00017 µM	0.994 ± 0.037
VA-ES-BJ, 0.00051 µM	1.011 ± 0.0065
VA-ES-BJ, 0.00152 µM	1.03 ± 0.036
VA-ES-BJ, 0.00457 µM	0.94 ± 0.046
VA-ES-BJ, 0.01372 µM	0.269 ± 0.024
VA-ES-BJ, 0.04115 µM	0.222 ± 0.0076
VA-ES-BJ, 0.1235 µM	0.227 ± 0.013
VA-ES-BJ, 0.3704 µM	0.255 ± 0.012
VA-ES-BJ, 1.111 µM	0.245 ± 0.011
VA-ES-BJ, 3.333 µM	0.253 ± 0.013
VA-ES-BJ, 10 µM	0.247 ± 0.0071
